This note sets out measurements from patent US20090042289A1, “Preservation of Cells” (University of Wales, Cardiff, priority 2000, published 2009).

One series in a line: in vitro. Particulars: rat.

Source text for hepatocytes: (§1) Data is expressed as a percentage of the number of viable cells (as determined by LDH activity) in the non-hydrolysed gelatin sandwich at each time point. Native Gel/cell slurry (-{acute over (◯)}-) wherein hepatocytes suspended in a gel of non-hydrolysed gelatin; Pre-adhered hepatocytes with Native gel blanket (-▪-) wherein hepatocytes allowed to adhere to the substratum before being blanketed by gel of non-hydrolysed gelatin; hydrolysed gelatin slurry (-x-) wherein hepatocytes suspended in a gel of non-hydrolysed gelatin hydrolysed at 95° C.; 75 bloom slurry (--) wherein hepatocytes suspended in a gel composed of 75 bloom gelatin (commercially available from Sigma); Pre-attached hepatocytes with Hydrolysed gel blanket (-◯-) wherein hepatocytes allowed to adhere to the substratum before being blanketed by a gel of hydrolysed gelatin.
Source text for in vitro: as §1

As a reminder, the viability is a per cent measure of how many cells are alive, often set against a control. A low value points to more harm to the cells. In “in vitro”, `OCC(O)CO` [glycerol] yielded a viability at 7 days, 0.5 M of 10%. The “cytotoxicity to hepatocytes during preservation” value with hepatocytes is “cytotoxic”.
